Laboratory results reported in patent US10774064B2 (Cadent Therapeutics, Inc., priority 2016, dated 2020).

target: T1, small-conductance Ca2+-activated K+ channels (SK channels, subtype 2) (Homo sapiens, UniProt Q9H2S1); test: whole-cell patch-clamp of ionic current through SK2 channels in HEK293 cells (SC100); format: cell-based; settings: concentration that increases the basal current by 100%; HEK293 cells expressing SK2 channels
T1 construct: expressed in transfected cells; host or cells: HEK293
Procedure, shortened: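 Whole-cell patch-clamp recording of current in HEK293 cells expressing SK2 channels. SC100 is the compound concentration that increases basal current by 100%.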

SC100 | SMILES
++ (++ means 200 nM-1000 nM) | Cc1cc(C)n(-c2cc(CO)cc(NC3CCC(F)(F)CC3)n2)n1 [Compound 185, (2-((4,4-difluorocyclohexyl)amino)-6-(3,5-dimethyl-1H-pyrazol-1-yl)pyridin-4-yl)methanol]
++ (++ means 200 nM-1000 nM) | Cc1cc(NC2CCC(F)(F)CC2)nc(-n2nc(C)cc2C)n1 [Compound 247, N-(4,4-difluorocyclohexyl)-2-(3,5-dimethyl-1H-pyrazol-1-yl)-6-methylpyrimidin-4-amine]
+ (+ means >1 uM) | CC(C)C1CC(=O)N1Cc1cc(NC2CCC(F)(F)CC2)nc(-n2ccc(CF)n2)n1 (stereo not drawn) [Compound 325, 1-((6-((4,4-difluorocyclohexyl)amino)-2-(3-(fluoromethyl)-1H-pyrazol-1-yl)pyrimidin-4-yl)methyl)-4-isopropylazetidin-2-one]
+ (+ means >1 uM) | FCc1ccn(-c2nc(NC3CCC(F)(F)CC3)cc(N3CCOCC3)n2)n1 [Compound 280, N-(4,4-difluorocyclohexyl)-2-(3-(fluoromethyl)-1H-pyrazol-1-yl)-6-morpholinopyrimidin-4-amine]
++ (++ means 200 nM-1000 nM) | Cc1cc(C)n(-c2cc(-n3cccn3)cc(NC3CCC(F)(F)CC3)n2)n1 [Compound 127, N-(4,4-difluorocyclohexyl)-6-(3,5-dimethyl-1H-pyrazol-1-yl)-4-(1H-pyrazol-1-yl)pyridin-2-amine]
+ (+ means >1 uM) | Cc1cc(C)n(-c2nc(NC3CCC(F)(F)C3)cc(C(N)=O)n2)n1 (stereo not drawn) [Compound 183, 6-((3,3-difluorocyclopentyl)amino)-2-(3,5-dimethyl-1H-pyrazol-1-yl)pyrimidine-4-carboxamide]
++ (++ means 200 nM-1000 nM) | Cc1ccn(-c2nc(NC3CCC(F)(F)CC3)cc(OC3CN(C(=O)OC(C)(C)C)C3)n2)n1 [Compound 151, tert-butyl 3-((6-((4,4-difluorocyclohexyl)amino)-2-(3-methyl-1H-pyrazol-1-yl)pyrimidin-4-yl)oxy)azetidine-1-carboxylate]
+ (+ means >1 uM) | Cc1cc(NC2CCC(F)(F)CC2)nc(-n2ccc(C#N)n2)n1 [Compound 212, 1-(4-((4,4-difluorocyclohexyl)amino)-6-methylpyrimidin-2-yl)-1H-pyrazole-3-carbonitrile]
+ (+ means >1 uM) | Cc1nc(-c2cc(NC3CCC(F)(F)CC3)nc(-n3ccc(CF)n3)n2)no1 [Compound 334, N-(4,4-difluorocyclohexyl)-2-(3-(fluoromethyl)-1H-pyrazol-1-yl)-6-(5-methyl-1,2,4-oxadiazol-3-yl)pyrimidin-4-amine]
+ (+ means >1 uM) | Cc1cc(C)n(-c2nc(NC3CCC(F)(F)CC3)cc(N3CC4(COC4)C3)n2)n1 [Compound 105, N-(4,4-difluorocyclohexyl)-2-(3,5-dimethyl-1H pyrazol-1-yl)-6-(2-oxa-6-azaspiro[3.3]heptan-6-yl)pyrimidin-4-amine]
+ (+ means >1 uM) | Cc1cc(C)n(-c2nc(CN3CCN(C)CC3)cc(NC3CCC(F)(F)CC3)n2)n1 [Compound 178, N-(4,4-difluorocyclohexyl)-2-(3,5-dimethyl-1H-pyrazol-1-yl)-6-((4-methylpiperazin-1-yl)methyl)pyrimidin-4-amine]
+ (+ means >1 uM) | Cc1cc(C)n(-c2nc(NC3CCC(F)(F)CC3)cc(N3CCNC(C(N)=O)C3)n2)n1 (stereo not drawn) [Compound 100, 4-(6-((4,4-difluorocyclohexyl)amino)-2-(3,5-dimethyl-1H-pyrazol-1-yl)pyrimidin-4-yl)piperazine-2-carboxamide]
++ (++ means 200 nM-1000 nM) | Cc1cc(C)n(-c2cc(CN)cc(NC3CCC(F)(F)CC3)n2)n1 [Compound 195, 4-(aminomethyl)-N-(4,4-difluorocyclohexyl)-6-(3,5-dimethyl-1H-pyrazol-1-yl)pyridin-2-amine]
++ (++ means 200 nM-1000 nM) | Cc1cc(C)n(-c2cc(OCc3ncnn3C)cc(NC3CCC(F)(F)CC3)n2)n1 [Compound 271, N-(4,4-difluorocyclohexyl)-6-(3,5-dimethyl-1H-pyrazol-1-yl)-4-((1-methyl-1H-1,2,4-triazol-5-yl)methoxy)pyridin-2-amine]
+ (+ means >1 uM) | Cc1cc(NC2CCC(F)(F)CC2)nc(-n2nc(CO)cc2C)n1 [Compound 241, (1-(4-((4,4-difluorocyclohexyl)amino)-6-methylpyrimidin-2-yl)-5-methyl-1H-pyrazol-3-yl)methanol]
+ (+ means >1 uM) | CCc1cc(C)nn1-c1nc(C)cc(NC2CCC(F)(F)CC2)n1 [Compound 260, N-(4,4-difluorocyclohexyl)-2-(5-ethyl-3-methyl-1H-pyrazol-1-yl)-6-methylpyrimidin-4-amine]

same assay, conditions: whole-cell patch-clamp, HEK293 cells expressing SK2 channels; concentration that increases the basal current by 100%

SMILES | SC100 (μM)
Cc1csc(-c2nc(NC3CCC(F)(F)CC3)cc(S(C)(=O)=O)n2)n1 [IN11054-046-P1] | + (+ means >1 uM)
COC(=O)N1CCCC(OCc2cc(NC3CCC(F)(F)CC3)nc(-n3ccc(C)n3)c2)C1 (stereo not drawn) [IN11067-004-P1] | ++ (++ means 200 nM-1000 nM)
Cc1csc(-c2nc(N)cc(NC3CCC(F)(F)CC3)n2)n1 [IN11055-068-P1, N4-(4,4-difluorocyclohexyl)-2-(4-methylthiazol-2-yl)pyrimidine-4,6-diamine] | + (+ means >1 uM)
CCN(CC)CC1CN(c2cc(NC3CCC(F)(F)CC3)nc(-c3nc(C)cs3)n2)CCO1 (stereo not drawn) [IN10881-092-P1] | +++ (+++ means <200 nM)
Cc1csc(-c2nc(NC3CCC(F)(F)CC3)cc(N3CCOCC3CO)n2)n1 (stereo not drawn) [IN10881-027-P1] | ++ (++ means 200 nM-1000 nM)
CSc1cc(NC2CCC(F)(F)CC2)nc(-c2nc(C)cs2)c1 [IN11147-026-P1, N-(4,4-difluorocyclohexyl)-6-(4-methylthiazol-2-yl)-4-(methylthio)pyridin-2-amine] | +++ (+++ means <200 nM)
Cc1csc(-c2nc(NC3CCC(F)(F)CC3)cc(OC3COC3)n2)n1 [IN11079-033-P1] | ++ (++ means 200 nM-1000 nM)
COC(C)c1cc(N(C)C2CCC(F)(F)CC2)nc(-n2ccc(C3CC3)n2)n1 (stereo not drawn) [IN11104-100-P1, 2-(3-cyclopropyl-1H-pyrazol-1-yl)-N-(4,4-difluorocyclohexyl)-6-(1-methoxyethyl)-N-methylpyrimidin-4-amine] | + (+ means >1 uM)
Cc1csc(-c2nc(NC3CCC(F)(F)CC3)cc(N3CCOC(CNC(=O)OC(C)(C)C)C3)n2)n1 (stereo not drawn) [IN10880-033-P1] | ++ (++ means 200 nM-1000 nM)
Cc1csc(-c2nc(NC3CCC(F)(F)CC3)cc(-c3ccccn3)n2)n1 [IN11196-080-P1] | + (+ means >1 uM)
COc1cc(N[C@@H]2CCCC[C@H]2F)nc(-c2nc(C)cs2)n1 [IN11140-096-P1] | + (+ means >1 uM)
Cc1csc(-c2nc(NC3CCC(F)(F)CC3)cc(C(C)(C)C)n2)n1 [IN11220-039-P1, 6-(tert-butyl)-N-(4,4-difluorocyclohexyl)-2-(4-methylthiazol-2-yl)pyrimidin-4-amine] | ++ (++ means 200 nM-1000 nM)
Cc1csc(-c2nc(NC3CCC(F)(F)CC3)cc(OCc3ccon3)n2)n1 [IN11125-013-P1] | ++ (++ means 200 nM-1000 nM)

Other lines, results leading:

SC100 (μM) | SMILES
++ (++ means 200 nM-1000 nM) | Cc1cc(C)n(-c2cc(N3C[C@H]4C[C@@H]3CO4)nc(NC3CCC(F)(F)CC3)n2)n1 [NSSy6638]
++ (++ means 200 nM-1000 nM) | Cc1ccn(-c2cc(N3CCOC(C(C)(C)O)C3)nc(NC3CCC(F)(F)CC3)n2)n1 (stereo not drawn) [NSSy6958]
++ (++ means 200 nM-1000 nM) | Cc1ccn(-c2nc(NC3CCC(F)(F)CC3)cc(OC3CC(C)(O)C3)n2)n1 (stereo not drawn) [NSSy5902, 3-((6-((4,4-difluorocyclohexyl)amino)-2-(3-methyl-1H-pyrazol-1-yl)pyrimidin-4-yl)oxy)-1-methylcyclobutan-1-ol]
++ (++ means 200 nM-1000 nM) | Cc1ccn(-c2cc(N3CCOC(CO)C3)nc(NC3CCC(F)(F)CC3)n2)n1 (stereo not drawn) [NSSy6986, (4-(2-((4,4-difluorocyclohexyl)amino)-6-(3-methyl-1H-pyrazol-1-yl)pyrimidin-4-yl)morpholin-2-yl)methanol]
+ (+ means >1 uM) | C/C(=N\O)Nc1cc(NC2CCC(F)(F)CC2)nc(-c2nc(C)no2)n1 [NSSy5830, (E)-N-(6-((4,4-difluorocyclohexyl)amino)-2-(3-methyl-1,2,4-oxadiazol-5-yl)pyrimidin-4-yl)-N′-hydroxyacetimidamide]
+ (+ means >1 uM) | Cc1ccnn1-c1cc(N2CCOCC2)nc(NC2CCC(F)(F)CC2)n1 [NSSy6525]
++ (++ means 200 nM-1000 nM) | Cc1ccn(-c2cc(C#N)cc(NC3CCC(F)(F)CC3)n2)n1 [NSSy5826]
++ (++ means 200 nM-1000 nM) | COc1cc(-n2nc(C)cc2C)nc(NC2CCC(F)(F)CC2)n1 [NSSy6519, N-(4,4-difluorocyclohexyl)-4-(3,5-dimethyl-1H-pyrazol-1-yl)-6-methoxy pyrimidin-2-amine]
+ (+ means >1 uM) | Cc1csc(-c2nc(O)cc(NC3CCC(F)(F)CC3)n2)n1 [NSSy6082, 6-((4,4-difluorocyclohexyl)amino)-2-(4-methylthiazol-2-yl)pyrimidin-4-ol]
+ (+ means >1 uM) | Cc1cc(-n2ccc(C(F)(F)F)n2)nc(NC2CCC(F)(F)CC2)n1 [NSSy6591]
+ (+ means >1 uM) | CO[C@@H](C)c1cc(-c2nc(C)cs2)nc(NC2CCC(F)(F)CC2)n1 [NSSy6729, (S)—N-(4,4-difluorocyclohexyl)-4-(1-methoxyethyl)-6-(4-methylthiazol-2-yl)pyrimidin-2-amine]
++ (++ means 200 nM-1000 nM) | Cc1ccn(-c2cc(N3CCOCC3)cc(NC3CCC(F)(F)CC3)n2)n1 [NSSy6573]
+ (+ means >1 uM) | Cc1ccn(-c2cc(S(=O)(=O)N3CCC(F)(F)CC3)cc(N3CCOCC3)n2)n1 [NSSy6489, 4-(4-((4,4-difluoropiperidin-1-yl)sulfonyl)-6-(3-methyl-1H-pyrazol-1-yl)pyridin-2-yl)morpholine]
